Measurements reported in EP0109255A2, “Glycerol derivatives” (ONO PHARMACEUTICAL CO., LTD., priority 1982, dated 1984).

Tested on: mice
Experiment: Acute toxicity by intravenous administration (tail vein)
Type: in vivo
Procedure: On the other hand, it was confirmed that the acute toxicity of all extent of the compounds of the present invention was more. than 30 mg/kg by intravenous administration. Therefore, glycerol derivatives of the present invention may be considered to be sufficiently safe and suitable for medical use. For example, the mortality (dead/used) in glycerol derivatives of the present invention, i.e. compounds prepared in Example 8, 8(j) and 8(r) was 2/10, 0/10 and 0/10, respectively, when each glycerol compound was intravenously administered to tail vein in ten mice at the dose of 30 mg/kg.

Structure (SMILES)	mortality (dead/used) (intravenously administered to tail vein in ten mice at the dose of 30 mg/kg)	mortality (dead/used) (mouse, in vivo, iv, 30 mg/kg)
CCCCCCCCCCCCCCCCOCC(COCCCC[N+](C)(C)C)NC(=O)OCCCC (racemic) [8 (j), (2RS)-l-0-hexadecyl-2-dehydroxy-2-butoxycarbonylamino-3-0-[4-(N,N,N-trimethylammonio)butyl]glycerol iodide]	0/10	–
CCCCCCCCCCCCCCCCOCC(COCCCC[N+](C)(C)C)NC(=O)c1ccccc1 (stereo not drawn) [Example 8]	–	2/10
CCCCCCCCCCCCCCCCOCC(COCCCC[N+](C)(C)C)NC(=O)NCCC (stereo not drawn) [8 (r)]	–	0/10
